Read-outs that look alike come from different tables or passages of the source.
Key:
[1] = system: spontaneously hypertensive rats (SHR ); test: Antihypertensive test: mean arterial pressure in spontaneously hypertensive rats; type: in vivo, rat; details: statement in words
Procedure: The effect of Compound 3 on the mean arterial pressure was determined on spontaneously hypertensive rats (SHR ) by means of direct pressure transducing. Groups of 6 male rats of mass 210-300g were used. The average of ten pressure determinations was used. Normotensive (BD-9) rats were used as animal controls, while normal saline solution (containing some traces of polyethylene glycol and ethanol to aid in the solution of the test compounds) was used as solvent and as solvent control.
After verifying the mass of the animal, it was placed under general anaesthesia by administering 60mgikg pentobarbitone (Sagatal@) intraperitonially. The tracheal tube and carotid artery were both exposed by dissection. An intranule was introduced into the trachea as aid ventilation. The carolid artery was canalated and coupled to a pressure sensor. The sysolic, diastolic and mean arterial pressure were monitored via a Spacelab 514 patient monitor and registered on a Vitatek 551 plotter. During the experiment the exposed tissue of the rat was covered with guaze and kept damp with normal saline.
The drugs and solvent controls were administered intravenously into the dorsal penile vein after stabilization of the blood pressure (BP) had occurred. After drug administration, the BP was recorded every 5 minutes for a period of 30 min.

[2] = system: guinea-pig papillary muscle; test: Electrophysiological test: action potential of guinea-pig papillary muscle (microelectrode technique); details: for minimal effective concentration: Cavia porcellus; for TIME 1 (Shortest time needed to attain suppression) / TIME 2 (Shortest time needed for reversal of effect by washing out of compound): at the listed bath concentration; for DEGREE OF SUPPRESSION: suppression of action potential at the listed bath concentration
Procedure: Electrophysiological studies were conducted on guinea-pig papillary muscle.
Using a microelectrode technique, action potentials were measured from guinea-pig papillary muscles. Action potentials were evoked by electrical stimulation (platinum electrode, Grass S88 stimulator, 1 Hz stimulation frequency; voltage, 10% above threshold). […] The preparations were electrically driven (pacing intervals 1 s, duration 2-5 ms). Slow (Ca2+ mediated) action potentials were evoked in a depolarizing solution (22 mmol/l K and 5 mmol/I Ca^2+) at 0,35 Hz stimulation frequency in order to ensure complete removal of inactivation of slow inward current.

cardiac myocytes = test: Calcium current blockade in cardiac myocytes (voltage clamp); type: cell-based, guinea-pig; details: voltage clamp experiments of cardiac myocytes
Procedure: Ventricular myocytes were isolated from guinea-pig hearts by enzymatic dispersion of the cells using a method related to that employed by Mitra and Morad. After 5 minutes of perfusion at 37 °C on a Langendorff apparatus, the Tyrode solution was changed for a Ca-free solution for 5 minutes, after which the heart was perfused with a 40ml Ca-free solution containing 12mg collagenase (Type II, Sigma) and 10mg protease (Type XIV; Sigma). Perfusion with the soluticn containing enzymes was usually stopped within 5 minutes or as soon as dark areas appeared on the ventricles. The heart was then perfused with a Tyrode solution containing 0.8mM Ca for a few minutes, after which the ventricles were cut in small pieces and the isolated cells were shaken free in a 50ml beaker containing Tyrode solution.
Tyrode solution containing 5.4 mM KCI; 1.8 mM CaC12; 0.5 mM MgClz; 137.6 mM NaCI; 5 mM glucose and 11.6 mM HEPES. The pH was adjusted to 7.4 with NaOH. […] No change in the pH of the Tyrode solution could be measured after this addition. […]
Suction pipettes with resistance values between 2 and 5 MΩ were drawn from borosilicate glass (Jencons, H15/10) and heat polished. […] The results were recorded on magnetic tape or floppy disk. […] Calcium currents were measured as the difference between the maximum slow inward current and the current recorded after 400 ms.

[3] = system: isolated rabbit ear preparation; test: Rabbit ear perfusion test (adrenaline-induced tone, perfusion pressure)
Procedure: Female New Zealand White rabbits (approximately 4kg) were anaesthetised with Sagatal ® (0.5ml/kg).
The central ear artery was cannulated using a 20 G catheter and the ear cut off at its base. Heparinised (5ml, 200 IU;ml) Krebs bicarbonate solution was perfused through the ear to expel the blood. The ear was placed in a warming jacket at 37°C and attached via the arterial catheter to the perfusion pump. Perfusion of the ear with aerated (95% 025% C02)Krebs bicarbonate solution at 37° C was commenced at a rate of 6.5ml/min using a Watson Marlow peristaltic pump. The perfusion pressure was monitored continuously using a pressure transducer (Type 4-327-1221, Consoliated Electrodynamics) coupled to a Devices Recorder.
Following an equilibration period of 15 minutes, increased tone was induced in the preparation by addition of adrenaline (1µg/ml) to the perfusion fluid.
After a stable tone was observed, various concentrations of test compounds were injected into the perfusion fluid and examined for their effect on the perfusion pressure. The effect of vehicle (0.2ml, 50% Krebs 50% ethanol) was also tested on the ear preparation.

With `CCCCCCCCNC12OC3C4C5CC(C6C5C3C61)C42` (racemic) [Compound 3, 8-η-Octylamino-8,11-oxopentacyclo[5.4.0 .0^2,6.0^3,10.0^5,9]undecane] the Antihypertensive activity [1] was “Antihypertensive activity has also been obtained”, the minimal effective concentration ([2]; read-out: BATH CONCENTRATION (Lowest concentration of the compound to induce suppression of action potential), Table 3, guinea-pig papillary muscle) was 62.5 µM and the minimal effective concentration ([2]; read-out: BATH CONCENTRATION (Lowest concentration of the compound to induce suppression of action potential), Table 4, racemates and optical isomers) was 62.5 µM. For the same compound, the “TIME 1 (Shortest time needed to attain suppression)” value ([2]; Table 3) was 6 min, the “TIME 2 (Shortest time needed for reversal of effect by washing out of compound)” value ([2]; Table 3) was 6 min and the “DEGREE OF SUPPRESSION” value ([2]; Table 3) was “complete”. The “TIME 1 (Shortest time needed to attain suppression)” value ([2]; Table 4) was 6 min, the “TIME 2 (Shortest time needed for reversal of effect by washing out of compound)” value ([2]; Table 4) was 6 min and the “DEGREE OF SUPPRESSION” value ([2]; Table 4) was “complete”. The “block of the calcium current” value (cardiac myocytes) was “pronounced frequency dependent block”, the inhibition at 0.01 mg ([3]; Oryctolagus cuniculus, Table 5, dose 10 µg, read-out: Mean % change in perfusion pressure) was 8.5% and the inhibition at 0.0316 mg ([3]; Oryctolagus cuniculus, Table 5, dose 31.6 µg, read-out: Mean % change in perfusion pressure) was 11.5%. The inhibition at 0.1 mg ([3]; Oryctolagus cuniculus, Table 5, dose 100 µg, read-out: Mean % change in perfusion pressure) was 16.5%, the inhibition at 0.316 mg ([3]; Oryctolagus cuniculus, Table 5, dose 316 µg, read-out: Mean % change in perfusion pressure) was 26% and the inhibition at 1 mg ([3]; Oryctolagus cuniculus, Table 5, dose 1000 µg, read-out: Mean % change in perfusion pressure) was 41%. For the same compound, the inhibition at 0.01 mg ([3]; Oryctolagus cuniculus, Table 6, dose 10 μg, read-out: Corrected mean % change in perfusion pressurre) was 5.5%, the inhibition at 0.0316 mg ([3]; Oryctolagus cuniculus, Table 6, dose 31.6 μg, read-out: Corrected mean % change in perfusion pressurre) was 5.5% and the inhibition at 0.1 mg ([3]; Oryctolagus cuniculus, Table 6, dose 100 μg, read-out: Corrected mean % change in perfusion pressurre) was 11.5%. The inhibition at 0.316 mg ([3]; Oryctolagus cuniculus, Table 6, dose 316 μg, read-out: Corrected mean % change in perfusion pressurre) was 20.5%, the inhibition at 1 mg ([3]; Oryctolagus cuniculus, Table 6, dose 1000 μg, read-out: Corrected mean % change in perfusion pressurre) was 34.5% and the inhibition at 0.0316 mg ([3]; Oryctolagus cuniculus, Table 7, dose 31.6 μg, read-out: Mean % change in perfusion pressure) was 9.4%. For the same compound, the inhibition at 0.1 mg ([3]; Oryctolagus cuniculus, Table 7, dose 100 μg, read-out: Mean % change in perfusion pressure) was 17.3%, the inhibition at 0.316 mg ([3]; Oryctolagus cuniculus, Table 7, dose 316 μg, read-out: Mean % change in perfusion pressure) was 24.7% and the inhibition at 1 mg ([3]; Oryctolagus cuniculus, Table 7, dose 1000 μg, read-out: Mean % change in perfusion pressure) was 28.9%. The inhibition at 3.16 mg ([3]; Oryctolagus cuniculus, Table 7, dose 3160 μg, read-out: Mean % change in perfusion pressure) was 27.6%, the “Mean time taken to return to pre-dose volume” value ([3]; Table 5, dose 31.6 µg) was 1.75 min and the “Mean time taken to return to pre-dose volume” value ([3]; Table 5, dose 100 µg) was 4.25 min. For the same compound, the “Mean time taken to return to pre-dose volume” value ([3]; Table 5, dose 316 µg) was 5.5 min, the “Mean time taken to return to pre-dose volume” value ([3]; Table 5, dose 1000 µg) was 8.75 min and the “Mean time to return to predose value” ([3]; Table 6, dose 100 μg) was 4.25 min. The “Mean time to return to predose value” ([3]; Table 6, dose 316 μg) was 7.0 min, the “Mean time to return to predose value” ([3]; Table 6, dose 1000 μg) was 10.5 min and the “Mean time taken to return to predose volume” value ([3]; Table 7, dose 31.6 μg) was 6.3 min. The “Mean time taken to return to predose volume” value ([3]; Table 7, dose 100 μg) was 6.3 min, the “Mean time taken to return to predose volume” value ([3]; Table 7, dose 316 μg) was 8.5 min and the “Mean time taken to return to predose volume” value ([3]; Table 7, dose 1000 μg) was 19.3 min. The “Mean time taken to return to predose volume” value ([3]; Table 7, dose 3160 μg) was 15.0 min.

Source: patent EP0312245A2, “Polycyclic compounds and pharmaceutical compositions thereof” (NORISTAN HOLDINGS LIMITED, priority 1987, dated 1989)
